Like-named read-outs stand apart in the source and are kept apart here.
Key:
[1] = Mouse PK studies after oral and IV dosing; format: in vivo; conditions: for F: PO 3 mg/kg vs IV 1 mg/kg; for AUC(0-t) / clearance / half-life / Vd / Cmax / Tmax: in vivo; for clearance: read-out: IV Cl (converted); for Vd: read-out: IV VSS
Method: The pharmacokinetics of representative Compounds of the Disclosure were determined after oral and IV dosing at the concentrations indicated in mouse (Table 7). […] The vehicles used in these studies are either (i) 10% PEG400+90% PBS (adjusted to pH to 8.0 by 0.5 N NaOH); or (ii) 100% PEG200.

AR protein = target: T1, AR protein (Homo sapiens, UniProt P10275); experiment: Western blotting analysis of AR protein levels in VCaP cells, band quantification, DC50/DC90; format: cell-based
T1 construct: endogenous in cells; host or cells: VCaP
T1 sequence (P10275 1-920): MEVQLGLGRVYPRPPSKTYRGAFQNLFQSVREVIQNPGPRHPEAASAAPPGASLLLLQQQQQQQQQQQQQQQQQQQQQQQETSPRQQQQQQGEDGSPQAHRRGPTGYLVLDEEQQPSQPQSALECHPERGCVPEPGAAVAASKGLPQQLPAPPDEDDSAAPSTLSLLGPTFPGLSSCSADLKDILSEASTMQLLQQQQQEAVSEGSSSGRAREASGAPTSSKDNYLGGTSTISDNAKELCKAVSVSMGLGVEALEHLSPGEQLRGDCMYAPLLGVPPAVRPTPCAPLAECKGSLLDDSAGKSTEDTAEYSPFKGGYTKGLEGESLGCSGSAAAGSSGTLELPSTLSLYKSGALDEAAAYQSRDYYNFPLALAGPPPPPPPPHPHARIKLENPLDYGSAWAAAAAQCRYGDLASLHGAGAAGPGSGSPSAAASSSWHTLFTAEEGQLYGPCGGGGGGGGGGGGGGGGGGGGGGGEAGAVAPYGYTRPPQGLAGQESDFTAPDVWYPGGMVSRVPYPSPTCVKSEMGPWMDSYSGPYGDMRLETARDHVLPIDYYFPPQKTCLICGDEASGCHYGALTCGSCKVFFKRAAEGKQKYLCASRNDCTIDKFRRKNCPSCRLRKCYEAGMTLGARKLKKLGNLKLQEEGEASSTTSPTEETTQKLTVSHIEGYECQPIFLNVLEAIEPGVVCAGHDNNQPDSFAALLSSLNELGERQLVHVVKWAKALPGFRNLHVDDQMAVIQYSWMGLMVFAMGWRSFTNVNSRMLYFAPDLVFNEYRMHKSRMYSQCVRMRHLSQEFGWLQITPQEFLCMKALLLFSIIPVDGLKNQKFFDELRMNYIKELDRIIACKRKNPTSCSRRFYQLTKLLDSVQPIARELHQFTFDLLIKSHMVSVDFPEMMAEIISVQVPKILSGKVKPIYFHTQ
Outline: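 VCaP cells treated with compounds, lysed in RIPA and probed for AR by Western blot with GAPDH loading control. Band intensities normalised to GAPDH; DC50 from curve fit, DC90 calculated from DC50 and Hill slope via four-parameter equation.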

[2] = iv, 1 mg/kg, IV, dose 1 mg/kg, read-out: IV AUC(0 − t)
[3] = iv, 1 mg/kg, IV, dose 1 mg/kg, read-out: IV T1/2 (converted)
[4] = po, 3 mg/kg, PO, dose 3 mg/kg, read-out: PO AUC(0 − t)
[5] = po, 3 mg/kg, PO, dose 3 mg/kg, read-out: PO T1/2 (converted)
[6] = VCaP cells, Table 6; read-out: VCaP DC50

Compound	F [1] [%]	AUC(0-t) [1, 2] [ng·h/mL]	clearance ([1]; iv, 1 mg/kg, IV, dose 1 mg/kg) [mL/min/kg]	half-life [1, 3] [h]	Vd ([1]; iv, 1 mg/kg, IV, dose 1 mg/kg) [L/kg]	Cmax ([1]; po, 3 mg/kg) [ng/mL]	Tmax ([1]; po, 3 mg/kg) [h]	AUC(0-t) [1, 4] [ng·h/mL]	half-life [1, 5] [h]	DC50 (AR protein; [6]) [nM]	DC50 (AR protein; read-out: VCaP DC50; VCaP cells, Table 6) [nM]	IV AUC(0 − t) ([1]; IV, dose 1 mg/kg) [ng·h/mL]	IV Cl ([1]; IV, dose 1 mg/kg) [mL/min/kg]	IV T1/2 ([1]; IV, dose 1 mg/kg) [h]	IV VSS ([1]; IV, dose 1 mg/kg) [L/kg]	PO AUC(0 − t) ([1]; PO, dose 3 mg/kg) [ng·h/mL]	PO Cmax ([1]; PO, dose 3 mg/kg) [ng/mL]	PO T1/2 ([1]; PO, dose 3 mg/kg) [h]	PO Tmax ([1]; PO, dose 3 mg/kg) [h]
C[C@H]1CC2(CCN(c3cnc(C(=O)N4CCC(N5CCN(c6ccc7c(c6)C(=O)N(C6CCC(=O)NC6=O)C7=O)CC5)CC4)cn3)CC2)CN1c1ccc(C#N)c(Cl)c1 (stereo partly drawn) [Cpd. No. 497, 2-chloro-4-((3S)-8-(5-(4-(4-(2-(2,6-dioxopiperidin-3-yl)-1,3-dioxoisoindolin-5-yl)piperazin-1-yl)piperidine-1-carbonyl)pyrazin-2-yl)-3-methyl-2,8-diazaspiro[4.5]decan-2-yl)benzonitrile]	30	849	18.8	2.7	2	336	0.5	760	2	< 1									
C[C@H]1CC2(CCN(c3cnc(C(=O)N4CCC(N5CCN(c6cc7c(cc6F)C(=O)N(C6CCC(=O)NC6=O)C7=O)CC5)CC4)cn3)CC2)CN1c1ccc(C#N)c(Cl)c1 (stereo partly drawn) [Cpd. No. 498, 2-chloro-4-((3S)-8-(5-(4-(4-(2-(2,6-dioxopiperidin-3-yl)-6-fluoro-1,3-dioxoisoindolin-5-yl)piperazin-1-yl)piperidine-1-carbonyl)pyrazin-2-yl)-3-methyl-2,8-diazaspiro[4.5]decan-2-yl)benzonitrile]	45	419	36.8	1.9	3.22	191	0.8	572	2.3	1 to 10									
C[C@H]1CC2(CCN(c3ccc(C(=O)N4CCC(N5CCN(c6ccc7c(c6)C(=O)N(C6CCC(=O)NC6=O)C7=O)CC5)CC4)nn3)CC2)CN1c1ccc(C#N)c(Cl)c1 (stereo partly drawn) [Cpd. No. 499, 2-chloro-4-((3S)-8-(6-(4-(4-(2-(2,6-dioxopiperidin-3-yl)-1,3-dioxoisoindolin-5-yl)piperazin-1-yl)piperidine-1-carbonyl)pyridazin-3-yl)-3-methyl-2,8-diazaspiro[4.5]decan-2-yl)benzonitrile]	29	1920	8.17	3.6	1.73	404	1.3	1670	2	< 1									
C[C@H]1CC2(CCN(c3ccc(C(=O)N4CCC(N5CCN(c6cc7c(cc6F)C(=O)N(C6CCC(=O)NC6=O)C7=O)CC5)CC4)nn3)CC2)CN1c1ccc(C#N)c(Cl)c1 (stereo partly drawn) [Cpd. No. 500, 2-chloro-4-((3S)-8-(6-(4-(4-(2-(2,6-dioxopiperidin-3-yl)-6-fluoro-1,3-dioxoisoindolin-5-yl)piperazin-1-yl)piperidine-1-carbonyl)pyridazin-3-yl)-3-methyl-2,8-diazaspiro[4.5]decan-2-yl)benzonitrile]	60	1880	7.83	2.6	1.53	711	1.7	3750	2	1 to 10									
C[C@H]1CC2(CCN(c3ccc(C(=O)N4CCN(CC5CN(c6cc7c(cc6F)C(=O)N(C6CCC(=O)NC6=O)C7=O)C5)CC4)cc3)CC2)CN1c1ccc(C#N)c(Cl)c1 (stereo partly drawn) [Cpd. No. 502, 2-chloro-4-((3S)-8-(4-(4-((1-(2-(2,6-dioxopiperidin-3-yl)-6-fluoro-1,3-dioxoisoindolin-5-yl)azetidin-3-yl)methyl)piperazine-1-carbonyl)phenyl)-3-methyl-2,8-diazaspiro[4.5]decan-2-yl)benzonitrile]	32	3490	3.33	10	3	289	3.3	3390	9.5	< 1									
C[C@H]1CC2(CCN(c3ccc(C(=O)N4CCN(C5CN(c6ccc7c(c6)C(=O)N(C6CCC(=O)NC6=O)C7=O)C5)CC4)cc3F)CC2)CN1c1ccc(C#N)c(Cl)c1 (stereo partly drawn) [Cpd. No. 510, 2-chloro-4-((3S)-8-(4-(4-(1-(2-(2,6-dioxopiperidin-3-yl)-1,3-dioxoisoindolin-5-yl)azetidin-3-yl)piperazine-1-carbonyl)-2-fluorophenyl)-3-methyl-2,8-diazaspiro[4.5]decan-2-yl)benzonitrile]	51	4080	3.33	8.3	2.1	518	2.7	6270	7.2		< 1								
C[C@H]1CC2(CCN(c3ccc(C(=O)N4CCC(N5CCN(c6ccc7c(c6)C(=O)N(C6CCC(=O)NC6=O)C7=O)CC5)CC4)cc3F)CC2)CN1c1ccc(C#N)c(Cl)c1 (stereo partly drawn) [Cpd. No. 511, 2-chloro-4-((3S)-8-(4-(4-(4-(2-(2,6-dioxopiperidin-3-yl)-1,3-dioxoisoindolin-5-yl)piperazin-1-yl)piperidine-1-carbonyl)-2-fluorophenyl)-3-methyl-2,8-diazaspiro[4.5]decan-2-yl)benzonitrile]	28	9040	1.67	8	0.9	668	2.7	7520	6.4	< 1									
C[C@H]1CC2(CCN(c3ccc(C(=O)N4CCN(C5CCN(c6ccc7c(c6)C(=O)N(C6CCC(=O)NC6=O)C7=O)CC5)CC4)cc3F)CC2)CN1c1ccc(C#N)c(Cl)c1 (stereo partly drawn) [Cpd. No. 521, 2-chloro-4-((3S)-8-(4-(4-(1-(2-(2,6-dioxopiperidin-3-yl)-1,3-dioxoisoindolin-5-yl)piperidin-4-yl)piperazine-1-carbonyl)-2-fluorophenyl)-3-methyl-2,8-diazaspiro[4.5]decan-2-yl)benzonitrile]	30	2990	5	8.2	3.1	344	1.7	2730	7	< 1									
C[C@H]1CC2(CCN(c3ccc(C(=O)N4CCN(C5CCN(c6ccc7c(c6)C(=O)N(C6CCC(=O)NC6=O)C7=O)CC5)CC4)cc3F)CC2)CN1c1ccc(C#N)c(Cl)c1 (stereo partly drawn) [Cpd. No. 522, 2-chloro-4-((3S)-8-(4-(4-(1-(2-(2,6-dioxopiperidin-3-yl)-1,3-dioxoisoindolin-5-yl)piperidin-4-yl)piperazine-1-carbonyl)-2-fluorophenyl)-3-methyl-2,8-diazaspiro[4.5]decan-2-yl)benzonitrile]	33									< 1		1723	8.3	8.6	4.6	1731	196	6.0	2.0
C[C@H]1CC2(CCN(c3ccc(C(=O)N4CCN(CC5CN(c6ccc7c(c6)C(=O)N(C6CCC(=O)NC6=O)C7=O)C5)CC4)cc3F)CC2)CN1c1ccc(C#N)c(Cl)c1 (stereo partly drawn) [Cpd. No. 528, 2-chloro-4-((3S)-8-(4-(4-((1-(2-(2,6-dioxopiperidin-3-yl)-1,3-dioxoisoindolin-5-yl)azetidin-3-yl)methyl)piperazine-1-carbonyl)-2-fluorophenyl)-3-methyl-2,8-diazaspiro[4.5]decan-2-yl)benzonitrile]	33	1710	8.33	8.9	5.7	149	1.7	1680	8.8	< 1									

Reference: US20220380368A1, “SPIROCYCLIC ANDROGEN RECEPTOR PROTEIN DEGRADERS” (THE REGENTS OF THE UNIVERSITY OF MICHIGAN, priority 2019, published 2022)
